Data reported in US20210115040A1, “OGA INHIBITOR COMPOUNDS” (Janssen Pharmaceutica NV, priority 2018, published 2021).

Experiments:
[1] = molecular target: T1, recombinant human Meningioma Expressed Antigen 5 (MGEA5), also referred to as O-GlcNAcase (OGA) (Homo sapiens, UniProt O60502); test: OGA biochemical assay (inhibition of FM-GlcNAc hydrolysis, fluorescence); settings: FM-GlcNAc substrate; for IC50: 6 h at room temperature, read-out: Enzymatic hOGA, pIC50 (converted); for Emax / Enzymatic Emax (%): maximal effect; for Emax: read-out: Enzymatic Emax (%)
T1 construct: Full length OGA enzyme was purchased at OriGene (cat #TP322411); purchased OriGene TP322411
T1 sequence (O60502 1-916): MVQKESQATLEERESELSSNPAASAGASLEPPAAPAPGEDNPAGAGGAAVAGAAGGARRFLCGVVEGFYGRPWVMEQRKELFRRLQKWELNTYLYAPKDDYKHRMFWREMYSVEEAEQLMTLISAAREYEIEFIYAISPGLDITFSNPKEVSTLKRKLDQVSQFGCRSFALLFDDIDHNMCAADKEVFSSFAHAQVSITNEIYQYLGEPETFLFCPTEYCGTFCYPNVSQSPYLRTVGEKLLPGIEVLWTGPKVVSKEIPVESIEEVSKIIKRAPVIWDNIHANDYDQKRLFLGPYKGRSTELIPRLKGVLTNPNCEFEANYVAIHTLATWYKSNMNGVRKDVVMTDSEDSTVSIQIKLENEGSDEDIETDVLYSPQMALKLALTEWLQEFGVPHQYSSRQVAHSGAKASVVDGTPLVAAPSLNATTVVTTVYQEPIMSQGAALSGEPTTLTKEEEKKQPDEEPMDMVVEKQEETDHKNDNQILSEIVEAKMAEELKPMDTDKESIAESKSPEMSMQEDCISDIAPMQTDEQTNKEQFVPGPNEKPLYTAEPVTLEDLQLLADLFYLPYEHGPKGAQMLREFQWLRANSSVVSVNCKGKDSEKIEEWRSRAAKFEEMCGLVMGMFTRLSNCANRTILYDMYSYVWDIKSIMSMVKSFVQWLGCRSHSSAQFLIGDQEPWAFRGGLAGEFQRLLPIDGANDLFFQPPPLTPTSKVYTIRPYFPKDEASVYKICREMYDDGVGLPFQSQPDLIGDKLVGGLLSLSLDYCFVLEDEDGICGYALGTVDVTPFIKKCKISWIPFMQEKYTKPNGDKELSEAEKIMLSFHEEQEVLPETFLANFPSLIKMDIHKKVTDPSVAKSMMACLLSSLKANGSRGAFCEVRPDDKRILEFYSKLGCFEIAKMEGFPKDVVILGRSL
Excerpt: The assay is based on the inhibition of the hydrolysis of fluorescein mono-β-D-N-Acetyl-Glucosamine (FM-GlcNAc) (Mariappa et al. 2015, Biochem J 470:255) by the recombinant human Meningioma Expressed Antigen 5 (MGEA5), also referred to as O-GlcNAcase (OGA). The hydrolysis FM-GlcNAc (Marker Gene technologies, cat #M1485) results in the formation of β-D-N-glucosamineacetate and fluorescein. The fluorescence of the latter can be measured at excitation wavelength 485 nm and emission wavelength 538 nm. An increase in enzyme activity results in an increase in fluorescence signal. Full length OGA enzyme was purchased at OriGene (cat #TP322411). The enzyme was stored in 25 mM Tris.HCl, pH 7.3, 100 mM glycine, 10% glycerol at −20° C. Thiamet G and GlcNAcStatin were tested as reference compounds (Yuzwa et al. 2008 Nature Chemical Biology 4:483; Yuzwa et al. 2012 Nature Chemical Biology 8:393). The assay was performed in 200 mM Citrate/phosphate buffer supplemented with 0.005% Tween-20. 35.6 g Na2HPO4 2H2O (Sigma, #C0759) were dissolved in 1 L water to obtain a 200 mM solution. 19.2 g citric acid (Merck, #1.06580) was dissolved in 1 L water to obtain a 100 mM solution. pH of the sodiumphosphate solution was adjusted with the citric acid solution to 7.2. The buffer to stop the reaction consists of a 500 mM Carbonate buffer, pH 11.0. 734 mg FM-GlcNAc were dissolved in 5.48 mL DMSO to obtain a 250 mM solution and was stored at −20° C. OGA was used at a 2 nM concentration and FM-GlcNAc at a 100 uM final concentration. Dilutions were prepared in assay buffer.
50 nl of a compound dissolved in DMSO was dispensed on Black Proxiplate™ 384 Plus Assay plates (Perkin Elmer, #6008269) and 3 μl fl-OGA enzyme mix added subsequently. Plates were pre-incubated for 60 min at room temperature and then 2 μl FM-GlcNAc substrate mix added. […] Plates were briefly centrifuged for 1 min at 1000 rpm and incubate at room temperature for 6 h. To stop the reaction 5 μl STOP buffer were added and plates centrifuge again 1 min at 1000 rpm. Fluorescence was quantified in the Thermo Scientific Fluoroskan Ascent or the PerkinElmer EnVision with excitation wavelength 485 nm and emission wavelength 538 nm.
For analysis a best-fit curve is fitted by a minimum sum of squares method. From this an IC50 value and Hill coefficient was obtained. High control (no inhibitor) and low control (saturating concentrations of standard inhibitor) were used to define the minimum and maximum values.

OGA = molecular target: T2, OGA (Homo sapiens, UniProt O60502); test: OGA cellular assay (ICC detection of O-GlcNAcylated proteins in HEK293 cells inducible for P301L mutant human Tau); assay type: cell-based; settings: for Emax: HEK293, HEK293 cells inducible for P301L mutant human Tau; for Emax / Cellular Emax (%): maximum = Thiamet G 200 uM; for EC50: read-out: Cellular hOGA, pEC50 (converted)
T2 construct: HEK293 cells inducible for P301L mutant human Tau (isoform 2N4R) were established at Janssen; endogenous in cells; host or cells: HEK293 cells inducible for P301L mutant human Tau (2N4R)
T2 sequence (O60502 1-916): T1 sequence (O60502 1-916)
Experimental: HEK293 cells inducible for P301L mutant human Tau (isoform 2N4R) were established at Janssen. Thiamet-G was used for both plate validation (high control) and as reference compound (reference EC50 assay validation). OGA inhibition is evaluated through the immunocytochemical (ICC) detection of O-GlcNAcylated proteins by the use of a monoclonal antibody (CTD110.6; Cell Signaling, #9875) detecting 0-GlcNAcylated residues as previously described (Dorfmueller et al. 2010 Chemistry & biology, 17:1250). Inhibition of OGA will result in an increase of O-GlcNAcylated protein levels resulting in an increased signal in the experiment. Cell nuclei are stained with Hoechst to give a cell culture quality control and a rough estimate of immediate compounds toxicity, if any. ICC pictures are imaged with a Perkin Elmer Opera Phenix plate microscope and quantified with the provided software Perkin Elmer Harmony 4.1.
Cells were propagated in DMEM high Glucose (Sigma, #D5796) following standard procedures. 2 days before the cell assay cells are split, counted and seeded in Poly-D-Lysine (PDL) coated 96-wells (Greiner, #655946) plate at a cell density of 12,000 cells per cm^2 (4,000 cells per well) in 100 μl of Assay Medium (Low Glucose medium is used to reduce basal levels of GlcNAcylation) (Park et al. 2014 The Journal of biological chemistry 289:13519). At the day of compound test medium from assay plates was removed and replenished with 90 μl of fresh Assay Medium. 10 μl of compounds at a 10fold final concentration were added to the wells. Plates were centrifuged shortly before incubation in the cell incubator for 6 hours. DMSO concentration was set to 0.2%. Medium is discarded by applying vacuum. For staining of cells medium was removed and cells washed once with 100 μl D-PBS (Sigma, #D8537). From next step onwards unless other stated assay volume was always 50 μl and incubation was performed without agitation and at room temperature. Cells were fixed in 50 μl of a 4% paraformaldehyde (PFA, Alpha aesar, #043368) PBS solution for 15 minutes at room temperature. […] Before analysis samples were washed 2 times manually for 5 minutes in ICC base buffer.
Imaging is performed using Perkin Elmer Phenix Opera using a water 20× objective and recording 9 fields per well. Intensity readout at 488 nm is used as a measure of O-GlcNAcylation level of total proteins in wells. To assess potential toxicity of compounds nuclei were counted using the Hoechst staining. IC50-values are calculated using parametric non-linear regression model fitting. As a maximum inhibition Thiamet G at a 200 uM concentration is present on each plate. In addition, a concentration response of Thiamet G is calculated on each plate.

[2] = HEK293 cells inducible for P301L mutant human Tau, 6 hours incubation
[3] = HEK293 cells inducible for P301L mutant human Tau

Structure (SMILES) | IC50 [1] [nM] | Emax [1] [%] | Emax (OGA) [%] | EC50 (OGA; [2]) [nM] | Enzymatic Emax (%) [1] [%] | Cellular Emax (%) (OGA; [3]) | Cellular hOGA; pEC50 (OGA; [2])
Cc1cc(C[C@@H]2CCN(C(C)c3nc4nc(C)sc4cc3F)C2)cc(C)n1 (mixture of isomers) [Compound 50] | 20 | 102 | 77 | 200 | – | – | –
Cc1cc([C@H]2CCCN([C@H](C)c3ccc4sc(C)nc4n3)C2)nc(C)n1 (racemic) [Compound 70] | 63.1 | 98 | 55 | 794 | – | – | –
Cc1cc([C@H]2CCCN([C@@H](C)c3ccc4sc(C)nc4n3)C2)nc(C)n1 (racemic) [Compound 71] | 7940 | 51 | -5 | > 1000 | – | – | –
Cc1cc([C@H]2CCCN([C@H](C)c3ccc4sc(C)nc4n3)C2)cc(C)n1 (racemic) [Compound 75] | 2000 | 86 | -1 | > 1000 | – | – | –
Cc1cc([C@H]2CCCN([C@@H](C)c3ccc4sc(C)nc4n3)C2)cc(C)n1 (racemic) [Compound 76] | 5.01 | 98 | 67 | 31.6 | – | – | –
COc1cc(C[C@H]2CCCN([C@H](C)c3ccc4oc(C)nc4n3)C2)cc(C)n1 (relative stereo) [Compound 23a] | 7.94 | 101 | 79 | 25.1 | – | – | –
Cc1cc(C[C@H]2CCCN(C(C)c3ccc4sc(C)nc4n3)C2)cc(C)n1 (single isomer, unassigned) [Compound 42b] | 2.51 | – | 79 | 10 | 101 | – | –
Cc1cc(CO[C@H]2CCCN(C(C)c3ccc4sc(C)nc4n3)C2)cc(C)n1 (single isomer, unassigned) [Compound 67] | 501 | 94 | 5 | > 1000 | – | – | –
Cc1cc(CO[C@@H]2CCCN(C(C)c3ccc4sc(C)nc4n3)C2)cc(C)n1 (single isomer, unassigned) [Compound 69] | 501 | 96 | -6 | > 1000 | – | – | –
Cc1cc(C[C@@H]2CCN(C(C)c3ccc4sc(C)nc4n3)C2)nc(C)n1 (single isomer, unassigned) [Compound 72] | 316 | 95 | 18 | > 1000 | – | – | –
Cc1cc(O[C@@H]2CCN(C(C)c3ccc4sc(C)nc4n3)C2)cc(C)n1 (single isomer, unassigned) [Compound 73] | > 10000 | – | – | > 1000 | 8 | −9 | –
Cc1cc(O[C@@H]2CCN(C(C)c3ccc4sc(C)nc4n3)C2)cc(C)n1 (single isomer, unassigned) [Compound 74] | 158 | – | – | – | 97 | −4 | <6
Cc1cc(C2CCCN(C(C)c3ccc4sc(C)nc4n3)C2)c(F)c(C)n1 (single isomer, unassigned) [Compound 77] | 2510 | 75 | – | > 1000 | – | −10 | –
Cc1cc(C2CCCN(C(C)c3ccc4sc(C)nc4n3)C2)c(F)c(C)n1 (single isomer, unassigned) [Compound 78] | 10 | – | – | 79.4 | 93 | 80 | –
Cc1cc([C@H]2CCCN(C(C)c3nc4nc(C)sc4cc3F)C2)cc(C)n1 (single isomer, unassigned) [Compound 85] | 3.98 | 100 | 75 | 10 | – | – | –
Cc1cc([C@H]2CCCN([C@H](C)c3nc4nc(C)sc4cc3F)C2)cc(C)n1 (single isomer, unassigned) [Compound 86] | 1580 | 95 | 12 | > 1000 | – | – | –
Cc1cc([C@H]2CCCN([C@@H](C)c3nc4nc(C)sc4cc3F)C2)cc(C)n1 (single isomer, unassigned) [Compound 87] | 2.51 | 99 | 79 | 3.16 | – | – | –
